These results are taken from publication PMC6715294 (Molecular cancer therapeutics, 2018).

Assay [1] concerns the target AKT2 (Homo sapiens, UniProt P31751). As to the kind of experiment: ADP-Glo kinase assay with active AKT2. In kind it is biochemical. (In general: ADP-Glo first removes unused ATP, then detects ADP through luciferase.)
For assay [2], the target named is AKT1 (Homo sapiens, UniProt P31749). As to the kind of experiment: ADP-Glo kinase assay with active AKT1. In kind it is biochemical.
AKT1, sequence (P31749 whole entry): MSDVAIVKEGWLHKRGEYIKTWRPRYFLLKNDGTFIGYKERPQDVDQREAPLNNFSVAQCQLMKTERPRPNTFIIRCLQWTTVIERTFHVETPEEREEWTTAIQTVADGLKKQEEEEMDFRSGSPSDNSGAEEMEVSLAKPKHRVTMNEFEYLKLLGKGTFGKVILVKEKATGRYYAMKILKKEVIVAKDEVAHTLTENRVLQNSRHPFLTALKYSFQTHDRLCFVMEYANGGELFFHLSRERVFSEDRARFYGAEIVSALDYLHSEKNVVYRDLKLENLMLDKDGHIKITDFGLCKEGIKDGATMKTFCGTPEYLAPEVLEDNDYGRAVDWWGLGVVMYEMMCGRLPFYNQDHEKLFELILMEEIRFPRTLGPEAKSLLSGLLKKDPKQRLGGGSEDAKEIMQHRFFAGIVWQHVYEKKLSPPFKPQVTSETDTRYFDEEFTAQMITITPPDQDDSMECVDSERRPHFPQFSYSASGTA

AKT2, sequence (P31751 whole entry): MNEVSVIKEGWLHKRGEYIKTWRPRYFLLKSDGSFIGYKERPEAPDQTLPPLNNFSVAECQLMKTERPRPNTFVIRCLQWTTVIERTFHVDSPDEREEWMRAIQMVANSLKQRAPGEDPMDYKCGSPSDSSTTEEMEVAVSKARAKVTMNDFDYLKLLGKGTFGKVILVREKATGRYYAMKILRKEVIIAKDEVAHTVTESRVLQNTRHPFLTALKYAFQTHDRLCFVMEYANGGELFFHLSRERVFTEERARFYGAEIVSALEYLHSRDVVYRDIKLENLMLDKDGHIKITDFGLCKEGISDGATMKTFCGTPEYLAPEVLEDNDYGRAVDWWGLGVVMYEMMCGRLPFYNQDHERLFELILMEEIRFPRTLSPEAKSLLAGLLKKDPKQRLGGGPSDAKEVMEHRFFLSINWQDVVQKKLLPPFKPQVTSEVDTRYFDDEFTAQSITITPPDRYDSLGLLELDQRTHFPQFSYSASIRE

Consider `C=C1C(=O)[C@]23[C@H](O)[C@H]1CC[C@H]2[C@@]12CO[C@]3(O)[C@@H](O)[C@@H]1C(C)(C)CC[C@@H]2O` [oridonin], for which the 50% inhibitory concentration (IC50) in assay [1] came out at 8.9 ± 0.92 µM; in assay [2] it was 8.4 ± 1.34 µM.

One may read the IC50 as the point on the concentration scale where inhibition reaches its midpoint. Read a low IC50 as inhibition by little substance.
